According to ChEMBL document CHEMBL3885861, “Open TG-GATES”:

Species on record: Rattus norvegicus
Test: Open TG-GATES - Regimen: Single
Format: toxicity, organism-based, Sprague-Dawley
Design: regimen Single, gender Male, age 6 weeks
Settings: in vivo, po, 300 mg/kg, route gavage, dose level High; for APTT / Bas / Eos / Fbg / Hb / Ht / Lym / MCH / MCHC / MCV / Mono / Neu / PT / Plat / RBC / Ret / WBC: tissue Blood; for KIDNEY_L / KIDNEY_R / KIDNEY_TOTAL: tissue Kidney; for LIVER: tissue Liver; for A/G / ALP / ALT / AST / BUN / CRE / Ca / Cl / DBIL / GLC / IP / K / LDH / Na / PL / RALB / TBIL / TC / TG / TP / gamma-GTP: tissue Plasma

## CCCNC(=O)NS(=O)(=O)c1ccc(Cl)cc1 [CHLORPROPAMIDE]
3 h
  TERMINAL_BW: 198 g
  APTT: 20.5 s
  Bas: 0%
  Eos: 0.6%
  Fbg: 309.8 mg/dL
  Hb: 14.6 g/dL
  Ht: 45.2%
  Lym: 74.8%
  MCH: 20.8 pg
  MCHC: 32.2%
  MCV: 64.6 fL
  Mono: 4.6%
  Neu: 18.6%
  PT: 15.7 s
  Plat: 121.4 x10_4/uL
  RBC: 700.6 x10_4/ul
  Ret: 9.7%
  WBC: 57 x10_2/uL
  KIDNEY_L: 0.8 g
  KIDNEY_R: 0.9 g
  KIDNEY_TOTAL: 1.7 g
  LIVER: 9.1 g
  A/G: 0.9
  ALP: 1404.2 IU/L
  ALT: 46.4 IU/L
  AST: 80.8 IU/L
  BUN: 12 mg/dL
  CRE: 0.2 mg/dL
  Ca: 10.8 mg/dL
  Cl: 105.4 meq/L
  DBIL: 0.008 mg/dL
  GLC: 147.4 mg/dL
  IP: 10.1 mg/dL
  K: 3.8 meq/L
  LDH: 86 IU/L
  Na: 143.8 meq/L
  PL: 126.8 mg/dL
  RALB: 2.8 g/dL
  TBIL: 0.018 mg/dL
  TC: 71.8 mg/dL
  TG: 60 mg/dL
  TP: 6 g/dL
  gamma-GTP: 1 IU/L
6 h
  TERMINAL_BW: 195 g
  APTT: 19.7 s
  Bas: 0%
  Eos: 1%
  Fbg: 344.4 mg/dL
  Hb: 14.6 g/dL
  Ht: 44.7%
  Lym: 72.2%
  MCH: 21.7 pg
  MCHC: 32.6%
  MCV: 66.6 fL
  Mono: 4.2%
  Neu: 21.4%
  PT: 16.1 s
  Plat: 105.8 x10_4/uL
  RBC: 670.8 x10_4/ul
  Ret: 9%
  WBC: 59.6 x10_2/uL
  KIDNEY_L: 0.9 g
  KIDNEY_R: 0.9 g
  KIDNEY_TOTAL: 1.8 g
  LIVER: 8 g
  A/G: 0.9
  ALP: 1619.2 IU/L
  ALT: 45.2 IU/L
  AST: 77.4 IU/L
  BUN: 14.8 mg/dL
  CRE: 0.2 mg/dL
  Ca: 10.9 mg/dL
  Cl: 106.2 meq/L
  DBIL: 0.004 mg/dL
  GLC: 108.4 mg/dL
  IP: 10.2 mg/dL
  K: 4.1 meq/L
  LDH: 82.6 IU/L
  Na: 143.2 meq/L
  PL: 135.8 mg/dL
  RALB: 2.8 g/dL
  TBIL: 0.018 mg/dL
  TC: 79.8 mg/dL
  TG: 46.6 mg/dL
  TP: 6 g/dL
  gamma-GTP: 1.2 IU/L
9 h
  TERMINAL_BW: 193.3 g
  APTT: 19.1 s
  Bas: 0.4%
  Eos: 0.8%
  Fbg: 391.6 mg/dL
  Hb: 13.4 g/dL
  Ht: 41.5%
  Lym: 72.2%
  MCH: 21.3 pg
  MCHC: 32.3%
  MCV: 65.8 fL
  Mono: 3%
  Neu: 23.2%
  PT: 16.8 s
  Plat: 118.3 x10_4/uL
  RBC: 629.8 x10_4/ul
  Ret: 8.9%
  WBC: 93.5 x10_2/uL
  KIDNEY_L: 0.9 g
  KIDNEY_R: 0.9 g
  KIDNEY_TOTAL: 1.7 g
  LIVER: 8.2 g
  A/G: 0.9
  ALP: 1339.6 IU/L
  ALT: 46.8 IU/L
  AST: 83.2 IU/L
  BUN: 15.4 mg/dL
  CRE: 0.2 mg/dL
  Ca: 10.9 mg/dL
  Cl: 106.4 meq/L
  DBIL: 0.008 mg/dL
  GLC: 96.8 mg/dL
  IP: 10.3 mg/dL
  K: 3.9 meq/L
  LDH: 85.2 IU/L
  Na: 143.6 meq/L
  PL: 127.8 mg/dL
  RALB: 2.7 g/dL
  TBIL: 0.022 mg/dL
  TC: 72.4 mg/dL
  TG: 50.6 mg/dL
  TP: 5.8 g/dL
  gamma-GTP: 1.2 IU/L
24 h
  TERMINAL_BW: 201.3 g
  APTT: 21.1 s
  Bas: 0%
  Eos: 1%
  Fbg: 308 mg/dL
  Hb: 13.2 g/dL
  Ht: 41.1%
  Lym: 81.2%
  MCH: 20.4 pg
  MCHC: 32.1%
  MCV: 63.5 fL
  Mono: 3%
  Neu: 13.6%
  PT: 16.2 s
  Plat: 114.9 x10_4/uL
  RBC: 647.2 x10_4/ul
  Ret: 7%
  WBC: 88.4 x10_2/uL
  KIDNEY_L: 0.9 g
  KIDNEY_R: 0.9 g
  KIDNEY_TOTAL: 1.8 g
  LIVER: 8.5 g
  A/G: 0.9
  ALP: 1944.4 IU/L
  ALT: 46.8 IU/L
  AST: 75 IU/L
  BUN: 15.4 mg/dL
  CRE: 0.2 mg/dL
  Ca: 10.8 mg/dL
  Cl: 108 meq/L
  DBIL: 0.008 mg/dL
  GLC: 185.4 mg/dL
  IP: 8.1 mg/dL
  K: 3.6 meq/L
  LDH: 74 IU/L
  Na: 142.2 meq/L
  PL: 129.6 mg/dL
  RALB: 2.7 g/dL
  TBIL: 0.022 mg/dL
  TC: 74.8 mg/dL
  TG: 45.4 mg/dL
  TP: 5.7 g/dL
  gamma-GTP: 1 IU/L
